Active and inactive are the calls of the source.

AC50, EC50 and IC50 data for two molecules are collected here from ChEMBL document CHEMBL1201862, “PubChem BioAssay data set” (2004).

Experiment [1] is described as follows: inhibitors of CMV-promoter luciferase reporter, dose response, counter-screen for Pax8 inhibitor project, cell-based, HEK293, luminescence, dry powder (AID 743020). The format is functional. Background: In a reporter assay the amount or activity of a reporter protein is the signal.
The target in experiment [2] is T1, Replicative DNA helicase DnaB (Mycobacterium tuberculosis, UniProt P9WMR3).
T1 sequence (P9WMR3 whole entry): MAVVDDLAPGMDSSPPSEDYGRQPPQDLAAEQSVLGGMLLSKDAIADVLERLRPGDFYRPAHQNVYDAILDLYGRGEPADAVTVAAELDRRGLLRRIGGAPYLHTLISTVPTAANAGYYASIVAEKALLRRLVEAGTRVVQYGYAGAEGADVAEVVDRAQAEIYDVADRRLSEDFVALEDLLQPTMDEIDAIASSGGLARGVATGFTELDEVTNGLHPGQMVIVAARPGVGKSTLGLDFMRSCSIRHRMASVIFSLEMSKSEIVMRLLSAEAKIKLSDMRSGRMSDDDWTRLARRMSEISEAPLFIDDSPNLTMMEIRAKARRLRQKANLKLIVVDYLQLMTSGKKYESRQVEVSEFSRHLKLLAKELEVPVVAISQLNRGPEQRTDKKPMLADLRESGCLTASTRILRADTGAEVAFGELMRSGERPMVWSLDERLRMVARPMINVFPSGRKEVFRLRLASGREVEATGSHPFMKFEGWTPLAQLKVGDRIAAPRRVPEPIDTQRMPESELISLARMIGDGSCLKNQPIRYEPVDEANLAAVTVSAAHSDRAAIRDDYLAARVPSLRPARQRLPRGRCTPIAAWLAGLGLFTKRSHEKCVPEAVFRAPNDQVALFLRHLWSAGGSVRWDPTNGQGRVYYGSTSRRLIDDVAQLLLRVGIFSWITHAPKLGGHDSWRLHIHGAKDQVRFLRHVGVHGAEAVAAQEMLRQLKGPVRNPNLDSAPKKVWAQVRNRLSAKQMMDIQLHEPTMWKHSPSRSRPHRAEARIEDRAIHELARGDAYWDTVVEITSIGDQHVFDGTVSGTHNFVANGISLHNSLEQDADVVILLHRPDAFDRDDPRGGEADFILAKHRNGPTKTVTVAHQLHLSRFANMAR
Kind of experiment: DnaB intein splicing inhibitors, dose response, biochemical, cell-free fluorescence (AID 449749). The format is functional.

In experiment [3] the target is Paired box protein Pax-8 (Homo sapiens, UniProt Q06710). Kind of experiment: inhibitors of PAX8-driven TPO luciferase reporter, dose response, RMG-I cells, cherry-pick (AID 687027).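 Also: luciferase reporter driven by Pax8 target thyroperoxidase promoter measured by SteadyGlo luminescence.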 The format is functional, cell-based.
Experiment [4] has as its target T2, Protein RecA (Mycobacterium tuberculosis, UniProt P9WHJ3).
T2 sequence (P9WHJ3 whole entry): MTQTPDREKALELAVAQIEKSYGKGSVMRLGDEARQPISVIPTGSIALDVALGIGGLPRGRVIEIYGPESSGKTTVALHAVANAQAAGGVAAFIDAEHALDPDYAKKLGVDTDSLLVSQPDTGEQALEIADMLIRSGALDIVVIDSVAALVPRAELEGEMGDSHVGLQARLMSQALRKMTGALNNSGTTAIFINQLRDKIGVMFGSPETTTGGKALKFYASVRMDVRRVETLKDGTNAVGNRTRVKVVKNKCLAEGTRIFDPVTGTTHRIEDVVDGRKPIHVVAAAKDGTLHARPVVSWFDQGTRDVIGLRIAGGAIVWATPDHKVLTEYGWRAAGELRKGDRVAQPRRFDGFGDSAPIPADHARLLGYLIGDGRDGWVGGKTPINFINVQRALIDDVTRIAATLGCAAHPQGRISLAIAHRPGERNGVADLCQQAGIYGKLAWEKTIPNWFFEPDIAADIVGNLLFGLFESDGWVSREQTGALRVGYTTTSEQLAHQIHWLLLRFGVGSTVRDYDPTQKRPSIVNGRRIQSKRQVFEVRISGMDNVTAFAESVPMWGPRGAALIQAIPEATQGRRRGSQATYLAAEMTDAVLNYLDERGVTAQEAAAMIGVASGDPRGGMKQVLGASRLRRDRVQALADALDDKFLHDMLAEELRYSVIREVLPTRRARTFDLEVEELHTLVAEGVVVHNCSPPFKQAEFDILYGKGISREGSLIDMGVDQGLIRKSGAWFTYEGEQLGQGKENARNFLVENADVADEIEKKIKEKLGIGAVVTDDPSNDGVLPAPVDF
Briefly: Fluorescence Cell-Free Homogeneous Dose Retest to Identify Inhibitors of RecA-Intein Splicing Activity. [Related pubchem assays (depositor defined):AID2097, AID2223, AID489010, AID492950]. In kind it is functional.

The target in experiment [5] is T3, Voltage-gated N-type calcium channel alpha-1B subunit/Amyloid beta A4 precursor protein-binding family A member 1 (Homo sapiens, UniProt Q00975+Q02410). In kind it is protein assay.
A short description of experiment [6]: non-specific cell cytotoxicity, dose response, cytotoxicity control for PAX8 inhibitor project, plate reader, dry powder samples (AID 743021). The format is functional, cell-based.
Experiment [7] deals with T3, Voltage-gated N-type calcium channel alpha-1B subunit/Amyloid beta A4 precursor protein-binding family A member 1. In kind it is protein assay. This is another data set of the same source.
For experiment [8], the target named is T4, Leucine aminopeptidase (Plasmodium falciparum 3D7, UniProt Q8IL11).
T4 sequence (Q8IL11 whole entry): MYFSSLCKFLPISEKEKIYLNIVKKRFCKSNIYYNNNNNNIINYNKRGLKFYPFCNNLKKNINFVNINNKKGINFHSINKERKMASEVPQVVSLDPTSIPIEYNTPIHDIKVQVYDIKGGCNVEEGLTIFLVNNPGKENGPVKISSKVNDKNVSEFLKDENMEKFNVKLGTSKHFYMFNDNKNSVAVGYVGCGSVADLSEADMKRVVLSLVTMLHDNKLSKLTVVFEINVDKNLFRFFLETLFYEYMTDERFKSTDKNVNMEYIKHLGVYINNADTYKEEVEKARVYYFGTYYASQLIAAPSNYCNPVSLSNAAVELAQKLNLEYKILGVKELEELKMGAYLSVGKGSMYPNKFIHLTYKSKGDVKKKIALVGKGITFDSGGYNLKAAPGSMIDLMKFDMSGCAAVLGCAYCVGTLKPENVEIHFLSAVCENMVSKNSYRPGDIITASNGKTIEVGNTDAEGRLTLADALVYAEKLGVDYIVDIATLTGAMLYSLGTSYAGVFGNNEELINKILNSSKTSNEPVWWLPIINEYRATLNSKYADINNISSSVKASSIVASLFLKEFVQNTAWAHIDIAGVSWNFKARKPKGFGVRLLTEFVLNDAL
Briefly: P. falciparum M17LAP inhibitors, primary screen, biochemical, fluorogenic H-Leu-NHMec substrate, 1536-well (AID 1619). In kind it is functional.

Experiment [9] deals with Peroxisome proliferator-activated receptor gamma/Nuclear receptor coactivator 3 (Homo sapiens, UniProt P37231). The format is functional.
Experiment [10] deals with T5, Mucolipin-3 (Homo sapiens, UniProt Q8TDD5).
T5 sequence (Q8TDD5 whole entry): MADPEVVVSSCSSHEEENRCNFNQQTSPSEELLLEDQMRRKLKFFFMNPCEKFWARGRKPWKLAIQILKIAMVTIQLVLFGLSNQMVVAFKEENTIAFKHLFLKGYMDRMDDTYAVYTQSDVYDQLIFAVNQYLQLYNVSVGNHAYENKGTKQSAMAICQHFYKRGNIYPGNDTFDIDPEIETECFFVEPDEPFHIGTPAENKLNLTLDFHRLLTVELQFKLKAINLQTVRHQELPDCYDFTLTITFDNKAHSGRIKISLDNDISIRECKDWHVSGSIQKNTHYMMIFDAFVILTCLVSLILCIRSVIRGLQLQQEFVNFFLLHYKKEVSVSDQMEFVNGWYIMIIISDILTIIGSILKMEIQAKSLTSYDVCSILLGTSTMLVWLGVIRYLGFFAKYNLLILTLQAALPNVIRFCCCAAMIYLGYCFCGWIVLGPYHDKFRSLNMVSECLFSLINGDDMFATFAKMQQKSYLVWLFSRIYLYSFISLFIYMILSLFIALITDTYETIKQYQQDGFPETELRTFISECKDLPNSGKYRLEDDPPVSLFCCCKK
Briefly: Fluorescence counterscreen assay for […] agonists: dose response cell-based high-throughput screening assay to identify agonists of the transient receptor potential channel ML3 (TRPML3). [Related pubchem assays: 1424, 1448 ]. In kind it is functional. (In general: A counterscreen serves to expose hits that act by an unwanted route or on another target.)

The target of experiment [11] is T6, Calpain-2 catalytic subunit (Sus scrofa, UniProt P43367).
T6 sequence (P43367 whole entry): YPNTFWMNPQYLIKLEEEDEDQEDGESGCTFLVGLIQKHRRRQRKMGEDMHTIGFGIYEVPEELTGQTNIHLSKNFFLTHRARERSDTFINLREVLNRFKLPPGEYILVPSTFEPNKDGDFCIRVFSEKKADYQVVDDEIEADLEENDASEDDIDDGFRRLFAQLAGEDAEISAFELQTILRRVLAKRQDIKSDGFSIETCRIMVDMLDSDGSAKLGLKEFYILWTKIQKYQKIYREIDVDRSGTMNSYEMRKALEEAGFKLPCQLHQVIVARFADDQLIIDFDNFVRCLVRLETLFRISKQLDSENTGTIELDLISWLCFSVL
Briefly: pig calpain II inhibitor potency, dose response, biochemical, fluorogenic peptide substrate (AID 1420). The format is functional.

Experiment [12] addresses Peroxisome proliferator-activated receptor gamma/Nuclear receptor coactivator 2 (Homo sapiens, UniProt P37231). In kind it is functional.
Experiment [13] addresses Peroxisome proliferator-activated receptor gamma/Nuclear receptor coactivator 1 (Homo sapiens, UniProt P37231). In kind it is functional.
The target in experiment [14] is Ion channel NompC (Danio rerio, UniProt Q7T1G6). Briefly: Dose response cell-based high-throughput screening assay for agonists of the transient receptor potential channel N1 (TRPN1). [Related pubchem assays (depositor defined):AID1424, AID1448]. In kind it is functional.
Experiment [15] in a line: enhancers of respiration in Yfh1-depleted yeast, dose response, Friedreich's ataxia, plus single-dose screen (AID 1465).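 Also: yeast depleted of Yfh1p frataxin homolog grown on glycerol needing respiration; WST-1 tetrazolium dye reduction as measure of cellular dehydrogenase metabolic activity.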 In kind it is functional.

T3 sequence (Q00975 whole entry): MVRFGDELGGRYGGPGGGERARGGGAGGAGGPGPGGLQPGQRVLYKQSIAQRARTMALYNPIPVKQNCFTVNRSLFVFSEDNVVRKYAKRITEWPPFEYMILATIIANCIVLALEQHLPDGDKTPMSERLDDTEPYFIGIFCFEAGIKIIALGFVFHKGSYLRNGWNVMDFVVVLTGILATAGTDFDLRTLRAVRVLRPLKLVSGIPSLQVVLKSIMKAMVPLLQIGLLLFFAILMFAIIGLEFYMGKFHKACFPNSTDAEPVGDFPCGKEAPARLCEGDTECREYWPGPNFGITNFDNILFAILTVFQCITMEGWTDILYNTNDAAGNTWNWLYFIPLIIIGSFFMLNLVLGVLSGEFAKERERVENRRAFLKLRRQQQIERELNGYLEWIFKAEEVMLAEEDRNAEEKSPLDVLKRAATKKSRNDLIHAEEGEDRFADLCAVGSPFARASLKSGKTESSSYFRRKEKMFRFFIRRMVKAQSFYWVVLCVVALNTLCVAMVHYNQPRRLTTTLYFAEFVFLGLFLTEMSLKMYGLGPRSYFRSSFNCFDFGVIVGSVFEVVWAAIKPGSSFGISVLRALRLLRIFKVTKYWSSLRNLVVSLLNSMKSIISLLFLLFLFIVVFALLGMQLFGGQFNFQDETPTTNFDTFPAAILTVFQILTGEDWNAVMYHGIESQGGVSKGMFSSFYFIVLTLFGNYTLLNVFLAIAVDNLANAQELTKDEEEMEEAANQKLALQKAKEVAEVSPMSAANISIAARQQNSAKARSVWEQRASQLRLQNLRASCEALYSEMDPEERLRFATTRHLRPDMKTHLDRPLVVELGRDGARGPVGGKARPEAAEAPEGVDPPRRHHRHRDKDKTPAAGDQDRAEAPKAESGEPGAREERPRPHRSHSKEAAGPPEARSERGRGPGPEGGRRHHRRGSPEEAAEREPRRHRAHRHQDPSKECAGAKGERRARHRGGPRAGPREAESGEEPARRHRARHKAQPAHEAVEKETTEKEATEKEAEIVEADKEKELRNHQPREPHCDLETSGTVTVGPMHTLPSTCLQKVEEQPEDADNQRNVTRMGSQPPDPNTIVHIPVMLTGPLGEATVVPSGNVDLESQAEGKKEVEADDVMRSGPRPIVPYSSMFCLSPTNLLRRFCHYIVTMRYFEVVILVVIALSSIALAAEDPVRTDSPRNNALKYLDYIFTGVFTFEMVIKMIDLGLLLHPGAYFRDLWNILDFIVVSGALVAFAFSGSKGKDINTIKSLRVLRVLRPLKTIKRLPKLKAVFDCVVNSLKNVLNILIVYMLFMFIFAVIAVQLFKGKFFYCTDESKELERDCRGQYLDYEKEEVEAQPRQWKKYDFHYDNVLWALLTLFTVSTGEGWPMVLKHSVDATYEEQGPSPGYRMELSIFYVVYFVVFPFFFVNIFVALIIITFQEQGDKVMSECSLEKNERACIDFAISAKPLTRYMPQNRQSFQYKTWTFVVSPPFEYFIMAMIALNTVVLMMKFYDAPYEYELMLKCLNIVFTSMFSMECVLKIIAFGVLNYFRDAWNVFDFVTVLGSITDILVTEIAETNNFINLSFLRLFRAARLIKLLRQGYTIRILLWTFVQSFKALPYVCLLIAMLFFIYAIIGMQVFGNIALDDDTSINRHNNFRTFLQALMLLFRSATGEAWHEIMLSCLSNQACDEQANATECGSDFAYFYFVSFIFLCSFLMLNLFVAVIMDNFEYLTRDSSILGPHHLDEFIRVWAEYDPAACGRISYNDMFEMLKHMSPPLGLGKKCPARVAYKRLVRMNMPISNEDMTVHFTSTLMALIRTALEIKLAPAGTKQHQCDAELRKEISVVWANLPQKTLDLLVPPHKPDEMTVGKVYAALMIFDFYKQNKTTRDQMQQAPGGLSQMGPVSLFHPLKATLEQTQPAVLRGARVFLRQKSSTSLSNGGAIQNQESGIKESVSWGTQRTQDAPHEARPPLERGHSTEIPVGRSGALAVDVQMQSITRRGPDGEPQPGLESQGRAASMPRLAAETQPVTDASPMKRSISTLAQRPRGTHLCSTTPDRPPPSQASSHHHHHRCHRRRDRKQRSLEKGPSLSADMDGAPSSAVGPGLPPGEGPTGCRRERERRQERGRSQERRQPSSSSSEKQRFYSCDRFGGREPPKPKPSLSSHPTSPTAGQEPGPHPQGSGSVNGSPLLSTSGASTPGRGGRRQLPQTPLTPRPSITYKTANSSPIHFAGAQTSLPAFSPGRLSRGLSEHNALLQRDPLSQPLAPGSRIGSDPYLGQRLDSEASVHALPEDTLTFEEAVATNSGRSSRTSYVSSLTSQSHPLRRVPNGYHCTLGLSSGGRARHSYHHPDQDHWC
T3 sequence (Q02410 whole entry): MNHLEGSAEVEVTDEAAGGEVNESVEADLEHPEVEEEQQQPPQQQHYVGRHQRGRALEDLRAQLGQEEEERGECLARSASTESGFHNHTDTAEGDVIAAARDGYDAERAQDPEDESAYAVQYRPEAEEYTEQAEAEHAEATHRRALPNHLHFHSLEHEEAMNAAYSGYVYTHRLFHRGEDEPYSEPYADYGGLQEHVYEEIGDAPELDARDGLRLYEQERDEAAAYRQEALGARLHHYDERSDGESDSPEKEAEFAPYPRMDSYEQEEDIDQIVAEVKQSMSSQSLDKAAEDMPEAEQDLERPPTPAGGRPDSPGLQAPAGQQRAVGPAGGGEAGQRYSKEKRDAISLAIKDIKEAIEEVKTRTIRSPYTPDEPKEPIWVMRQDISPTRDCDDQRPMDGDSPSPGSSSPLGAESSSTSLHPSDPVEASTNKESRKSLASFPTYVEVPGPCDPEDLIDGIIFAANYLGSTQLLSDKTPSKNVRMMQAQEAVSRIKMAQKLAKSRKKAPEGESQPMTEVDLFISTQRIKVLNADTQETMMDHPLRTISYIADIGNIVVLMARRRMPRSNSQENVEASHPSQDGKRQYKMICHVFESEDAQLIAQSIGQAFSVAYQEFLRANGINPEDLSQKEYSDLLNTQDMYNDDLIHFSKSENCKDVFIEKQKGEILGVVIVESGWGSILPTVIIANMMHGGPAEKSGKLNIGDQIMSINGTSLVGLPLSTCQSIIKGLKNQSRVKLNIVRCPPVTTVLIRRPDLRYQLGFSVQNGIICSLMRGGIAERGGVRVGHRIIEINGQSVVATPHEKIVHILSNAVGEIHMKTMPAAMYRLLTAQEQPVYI
Sequence of Ion channel NompC (Q7T1G6 whole entry): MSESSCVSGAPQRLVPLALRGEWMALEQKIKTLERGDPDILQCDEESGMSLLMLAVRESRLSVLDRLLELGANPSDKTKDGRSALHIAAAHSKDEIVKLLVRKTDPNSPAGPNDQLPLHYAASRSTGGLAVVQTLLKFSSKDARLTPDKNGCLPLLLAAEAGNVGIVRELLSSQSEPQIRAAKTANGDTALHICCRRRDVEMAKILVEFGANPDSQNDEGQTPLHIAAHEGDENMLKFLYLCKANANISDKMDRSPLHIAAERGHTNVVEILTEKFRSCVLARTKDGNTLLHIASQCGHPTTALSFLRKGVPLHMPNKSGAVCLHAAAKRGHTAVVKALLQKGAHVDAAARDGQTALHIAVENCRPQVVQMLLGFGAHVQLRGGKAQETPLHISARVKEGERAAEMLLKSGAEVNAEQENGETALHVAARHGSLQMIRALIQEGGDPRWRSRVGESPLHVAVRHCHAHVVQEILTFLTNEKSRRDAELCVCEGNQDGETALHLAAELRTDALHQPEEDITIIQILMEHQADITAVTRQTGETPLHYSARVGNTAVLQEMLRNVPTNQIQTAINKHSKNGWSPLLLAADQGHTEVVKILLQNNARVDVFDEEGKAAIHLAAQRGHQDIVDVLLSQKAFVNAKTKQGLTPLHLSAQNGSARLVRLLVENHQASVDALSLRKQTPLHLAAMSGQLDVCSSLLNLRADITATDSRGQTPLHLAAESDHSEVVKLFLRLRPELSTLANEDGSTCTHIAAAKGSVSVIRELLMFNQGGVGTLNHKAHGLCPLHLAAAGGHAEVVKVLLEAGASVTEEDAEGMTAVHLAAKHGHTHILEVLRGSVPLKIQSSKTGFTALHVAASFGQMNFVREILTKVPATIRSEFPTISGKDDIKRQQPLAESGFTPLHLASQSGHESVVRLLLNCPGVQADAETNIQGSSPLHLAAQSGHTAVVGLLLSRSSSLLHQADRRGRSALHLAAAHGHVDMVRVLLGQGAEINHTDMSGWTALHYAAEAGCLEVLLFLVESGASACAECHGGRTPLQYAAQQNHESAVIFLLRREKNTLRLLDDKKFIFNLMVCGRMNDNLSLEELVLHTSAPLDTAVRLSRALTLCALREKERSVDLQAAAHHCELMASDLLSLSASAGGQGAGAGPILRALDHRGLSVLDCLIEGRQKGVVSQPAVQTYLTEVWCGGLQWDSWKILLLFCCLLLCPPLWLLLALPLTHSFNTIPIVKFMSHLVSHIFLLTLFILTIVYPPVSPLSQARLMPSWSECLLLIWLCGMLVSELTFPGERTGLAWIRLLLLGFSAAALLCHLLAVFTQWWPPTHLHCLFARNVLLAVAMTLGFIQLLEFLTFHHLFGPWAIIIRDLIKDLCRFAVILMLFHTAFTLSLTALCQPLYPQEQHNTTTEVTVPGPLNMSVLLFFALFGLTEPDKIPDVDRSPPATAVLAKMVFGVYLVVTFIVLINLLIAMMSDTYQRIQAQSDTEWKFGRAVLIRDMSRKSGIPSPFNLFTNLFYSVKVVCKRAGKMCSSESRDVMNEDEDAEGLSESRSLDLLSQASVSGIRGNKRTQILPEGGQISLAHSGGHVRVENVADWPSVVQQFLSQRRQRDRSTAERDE

For `N#Cc1nccnc1S(=O)(=O)c1cccs1`, the AC50 is 23 µM (active) in experiment [1], 8.49 µM (active) in experiment [2], 4.59 µM (active) in experiment [3] and 13.5 µM (active) in experiment [6]. In addition, the EC50 in experiment [4] is 6.36 µM (active). Further, the IC50 was 1.13 µM (active) in experiment [5] and 22.7 µM (active) in experiment [7].
For `CN1CCS/C1=C\C=C1/SC(=S)N(CC(=O)O)C1=O`, the IC50 in [8] was 52.3 µM (active); in [11], 7.69 µM (not active). In addition, the EC50 in experiment [9] was > 79.4 µM (not active); in [10] it was 7.93 µM (active); in experiment [12], 62.2 µM (not active); in [13] it was 89.8 µM (not active); in experiment [14], 5.26 µM (active); in experiment [15] it was > 100 µM (active).

A word on the AC50: it is the concentration giving half of the maximal activity seen. In general, EC50 refers to the concentration giving half of the maximal effect. As usually defined, the IC50 is the concentration that inhibits the measured activity by half.
